The values below are quoted from earlier work in patent publication US20230218541A1, “Enhanced Moisturizing Lotion Compositions” (priority 2019, published 2023).

The series concerns coronaviruses, including SARS-CoV-2, SARS-CoV, MERS-CoV, and HCoVs. Conditions: 62% to 71% ethanol, 0.5% hydrogen peroxide or 0.1% sodium hypochlorite.

For `CCO` [ethanol], the “Time to efficient inactivation of coronaviruses on contact with surface disinfectant” value (“Time to efficient inactivation” below) is given as “one”. `OO` [hydrogen peroxide]: the “Time to efficient inactivation” value is recorded as “one”. With `OCl` [sodium hypochlorite], the “Time to efficient inactivation” value is “one”.
